Test results reported in US12485124B2, “Methods for treating alzheimer disease and for reducing amyloid beta formation” (ARIBIO CO., LTD., priority 2019, dated 2025).

Key:
[1] = tested on: LC3B, p62, APP, Aβ1-42 in Retinoic Acid Differentiated SH-SY5Y Human Neuroblastoma Cell; assay: Western Blot of Autophagy Markers LC3B and p62; format: cell-based; conditions: 3-MA 5 mM together with the present invention; Aβ1-42 Oligomer 1 μM
Method: To extract the proteins, the cells were treated with RIPA Lysis Buffer (Bio-Rad), homogenized, and centrifuged (14,000 rpm, 10 minutes, 4° C.) to obtain the supernatant. 5% Stacking Gel (DW, 30% Acrylamide: Bisacrylamide, 1M Tris pH 6.8, 10% SDS, TEMED, 10% Ammonium Persulfate) and 12% Separating Gel (DW, 30% Acrylamide: Bisacrylamide, 1.5M Tris pH 8.8, 10% SDS, TEMED, 10% Ammonium Persulfate) were used for SDS-PAGE. Supernatant obtained by centrifugation was mixed with 4× Lacmmli Buffer (Bio-Rad) in 3:1 ratio and boiled at 95° C. for 10 minutes to denature the proteins. The mixture was cooled in an ice bath for 10 minutes and span down. Protein Size Marker (Bio-Rad) and each sample were added to Stacking Gel Well prepared in Mini-Protein II Dual-Slab Apparatus (Bio-Rad) and electrophoresed at 150 volt till all are precipitated to the bottom. Polyvinylidene Difluoride (PVDF) Membrane was moistened with methanol to activate and washed with Transfer Buffer (190 mM Glycine, 50 mM Tris-Base, 0.05% SDS, 20% Methanol). Whatman 3M Paper moistened with Transfer Buffer was stacked in Mini Trans-Bolt Cell (Bio-Rad) and run electricity at 200 mA for 60 minutes to deposit the membrane. After the deposition, the membrane was blocked with 5% Skim milk solution (in TBS-T: 10 mM Tris-Base pH 8.0, 150 mM NaCl, 0.1% Tween-20) on a Platform Shaker for 60 minutes. The primary antibodies were diluted in 5% Skim Milk in an optimum concentration for each, put on platform shaker at 4° C. for 16 hours. […] Finally, Membrane was added to SuperSignal™ West Femto Maximum Sensitivity Substrate (Thermo Scientific™) and expressed the color properly before the membrane was scanned using image analysis system and the amount of protein was calculated using Image J Software (NIH, USA). […]

BACE-1 and Cathepsin B = conditions: reported in J Gerontol a Biol Sci Med Sci 2015; J Urol. 2016; cited from earlier work

| SMILES | APP formation and Aβ1-42 accumulation [1] | Autophagic Flux (LC3B-II/I Ratio) [1] | expression of p62 [1] | BACE-1 and Cathepsin B expression (BACE-1 and Cathepsin B) |
| --- | --- | --- | --- | --- |
| Cn1cnc(N)c2ncnc1-2 [3-MA, 3-Methyladenine] | APP formation and Aβ1-42 accumulation increased | Autophagic Flux (LC3B-II/I Ratio) increased by the present invention was reduced | expression of p62 reduced by the present invention increased |  |
| CCCc1nn(C)c2c(=O)[nH]c(-c3cc(S(=O)(=O)N4CCN(C)CC4)ccc3OCC)nc12 [Sildenafil] |  |  |  | suppressed BACE-1 and Cathepsin B expression |
